According to patent US8129402B2 (priority 2002, dated 2012):
“Also recorded” adds a separate entry of the source.

Columns and labels:
[1] = test system: [PSI+] prion (prion form of the protein Sup35p), STRg6 strain; type: cell-based, Saccharomyces cerevisiae; conditions: for activity against the [PSI+] prion (FIG. 7, validation of the screen) / activity compared with another compound in the screen: medium contains 200 μM of guanidium chloride; for synergy of action with guanidium chloride: sub-effective guanidium chloride in medium (200 μM, 500 μM); for relative anti-prion activity on a dish (FIG. 4): 10 μl of a 10 mM solution applied
mammal prion PrP = mammal prion PrP (Mus musculus, UniProt P04925); conditions: cited from earlier work
[2] = test system: [URE3] prion, NT34 and CC34 strains; type: cell-based, Saccharomyces cerevisiae
[3] = test system: [PSI+] prion, "strong" strain 74-D694; type: cell-based, Saccharomyces cerevisiae
[4] = test system: [URE3] prion (Ure2p), NT34 strain; type: cell-based, Saccharomyces cerevisiae; conditions: for red halo on NT34 lawn ([URE3] secondary screen): FIG. 6
[5] = target: PrP^sc in ScN2a-22L cells (Mus musculus, UniProt P04925); type: cell-based
Sequence of PrP^sc in ScN2a-22L cells (P04925 23-230 limits assumed): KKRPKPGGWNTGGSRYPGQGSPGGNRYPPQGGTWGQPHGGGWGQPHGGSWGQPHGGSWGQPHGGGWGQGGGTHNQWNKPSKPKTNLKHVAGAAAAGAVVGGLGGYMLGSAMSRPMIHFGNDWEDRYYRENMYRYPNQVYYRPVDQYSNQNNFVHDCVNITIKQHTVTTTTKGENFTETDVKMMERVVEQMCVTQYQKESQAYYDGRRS

Sequence of mammal prion PrP (P04925 23-230 limits assumed): as above

CN(C)CCCN1c2ccccc2Sc2ccc(Cl)cc21 [chlorpromazine]
activity against the [PSI+] prion (FIG. 7, validation of the screen) [1]: a certain activity
activity compared with another compound in the screen [1]: clearly weaker than that of 6-aminophenanthridine
synergy of action with guanidium chloride [1]: strong synergy of action

CC(=O)c1ccc2c(c1)N(CCCN(C)C)c1ccccc1S2 [acepromazine]
activity in the mammal system (Prof. Prusiner's test) (mammal prion PrP): slightly active
activity against the [PSI+] prion (FIG. 7, validation of the screen) [1]: weak activity

COc1ccc(CCN(C)CCCC(C#N)(c2ccc(OC)c(OC)c2)C(C)C)cc1OC (stereo not drawn) [verapamil]
activity against the [PSI+] prion (FIG. 7, validation of the screen) [1]: no curative effect could be detected

Cl.N=C(N)N [guanidium chloride]
colony colour of NT34 cells recovered around the filter, on fresh medium free of molecules [2]: red colonies
curing of [PSI+] cells (red staining of the drop of cells) ([3]; 5 mM guanidium chloride, 0.2% DMSO, after 48 hours (approximately 12 generations)): complete curing
colony colour of NT34 strain after treatment ([4]; 5 mM of guanidium chloride for approximately ten generations): red colonies

Nc1nc2ccccc2c2ccc(Cl)cc12 [6A-8CP, 6-amino-8-chlorophenanthridine]
relative anti-prion activity on a dish (FIG. 4) [1]: again increased the activity

CCN(CC)CCCC(C)Nc1c2ccc(Cl)cc2nc2ccc(OC)cc12 (stereo not drawn) [quinacrine]
activity against the [PSI+] prion (FIG. 7, validation of the screen) [1]: a certain activity
activity compared with another compound in the screen [1]: clearly weaker than that of 6-aminophenanthridine; also recorded: activity greater than the latter

CN(C)CC/C=C1/c2ccccc2Sc2ccc(Cl)cc21 [chloroprothixene]
activity in the mammal system (Prof. Prusiner's test) (mammal prion PrP): inactive
activity against the [PSI+] prion (FIG. 7, validation of the screen) [1]: inactive

NC(=O)N1c2ccccc2C=Cc2ccccc21 [carbamazepine]
activity in the mammal system (Prof. Prusiner's test) (mammal prion PrP): inactive
activity against the [PSI+] prion (FIG. 7, validation of the screen) [1]: inactive

Nc1nc2ccccc2c2ccc(C(F)(F)F)cc12 [6A-8tFP, 6-amino-8-trifluoromethylphenanthridine]
relative anti-prion activity on a dish (FIG. 4) [1]: one of the most active compounds

CN(C)c1ccc2nc3ccc(=[N+](C)C)cc-3sc2c1 [methylene blue]
activity in the mammal system (Prof. Prusiner's test) (mammal prion PrP): inactive
activity against the [PSI+] prion (FIG. 7, validation of the screen) [1]: inactive

c1ccc2c(c1)cnc1ccccc12 [phenanthridine]
colony colour of NT34 cells recovered around the filter, on fresh medium free of molecules [2]: red colonies
general statement of anti-prion activity in the screen [1]: particularly active
anti-prion activity: red halo around the filter disc (size of the halo) ([1]; 15 μl of a 10 mM solution in DMSO, medium with 0.2 mM guanidium chloride, FIG. 3): positive signal
activity on a medium without guanidium chloride ([1]; medium without guanidium chloride): always active
synergy of action with guanidium chloride [1]: activity increases significantly as a function of the quantity of guanidium chloride
red halo on NT34 lawn ([URE3] secondary screen) [4]: cause the appearance of a red halo

O=C(CCCN1CCC(O)(c2ccc(Cl)cc2)CC1)c1ccc(F)cc1 [haloperidol]
activity in the mammal system (Prof. Prusiner's test) (mammal prion PrP): inactive
activity against the [PSI+] prion (FIG. 7, validation of the screen) [1]: inactive

CN(C)CCCN1c2ccccc2CCc2ccccc21 [imipramine]
activity in the mammal system (Prof. Prusiner's test) (mammal prion PrP): inactive
activity against the [PSI+] prion (FIG. 7, validation of the screen) [1]: inactive

Nc1nc2ccccc2c2ccccc12 [6-aminophenanthridine]
colony colour of NT34 cells recovered around the filter, on fresh medium free of molecules [2]: red colonies
curing of the [URE3] prion (ability to grow on USA medium) ([2]; CC34 strain, different doses, alone): capable of curing the [URE3] prion in a significant manner
curing of the [URE3] prion in combination with guanidium chloride ([2]; CC34 strain, with 200 μM of guanidium chloride): accentuated
elimination of the mammal prion in vitro (summary) [5]: effective
effect on the elimination of PrPsc ([5]; at 2 and 4 μM): same effect
general statement of anti-prion activity in the screen [1]: particularly active
relative anti-prion activity on a dish (FIG. 4) [1]: still more active than the Kastellpaolitines and phenanthridine
curing of the [PSI+] prion in liquid medium ([3]; 5 days liquid culture, compound alone, FIG. 5): capable of partially curing the [PSI+] prion from a significant number of cells
curing effectiveness with added guanidium chloride in liquid medium ([3]; plus sub-effective dose (100 μM) of guanidium chloride): increased
red halo on NT34 lawn ([URE3] secondary screen) [4]: cause the appearance of a red halo
